# Values quoted from earlier work in PMC4682813, “The Aminosteroid Derivative RM-133 Shows In Vitro and In Vivo Antitumor Activity in Human Ovarian and Pancreatic Cancers” (PLoS ONE, 2015).
# Test system: CYP2D6
# Set-up: method as in PMID 25300820
# Conditions: low to moderate risk of drug-drug interactions; cited from earlier work
smiles,measurement,value
C#C[C@]1(O)CC[C@H]2[C@@H]3CC[C@H]4C[C@H](O)[C@@H](N5CCN(C(=O)[C@@H]6CCCN6C(=O)c6ccc7ccccc7n6)CC5)C[C@]4(C)[C@H]3CC[C@@]21C [RM-133],inhibition of CYP2D6,weak inhibition
